# Results published in patent US5084455A, “Novel indole carboxamides” (Roussel Uclaf, priority 1985, dated 1992).
# Structures can show the parent of a compound that is named as a salt. Where two headings read alike, the source gives them in different places.
# Tests used:
# [1] = system: disturbances of the cardiac rhythm; experiment: Anti-arrhythmic action in the rat (aconitine perfusion); type: in vivo, male rats
# Procedure: Male rats weighing 300-350 g were anesthetized intra-peritoneally with 1.20 g/kg of urethane, then tracheotomized and submitted to artificial respiration (40-50 breaths of 3 ml/minute). Needles were implanted subcutaneously so as to record the electro-cardiogram of the rats on the DII derivation signal. The products under test were administered intravenously or orally.
# Five minutes after the administration of the product intravenously or 1 hour after administration orally, the jugular vein of the rats was perfused with 10 μg/minute from 0.2 ml of a solution of aconitine, and the time of appearance of disturbances of the cardiac rhythm was noted, (10 μg of aconitine corresponding to a perfusion of 0.2 ml of solution). The results are expressed as a percentage of the extension of the time of appearance of the disturbances of the cardiac rhythm as compared with controls, and as a function of the dose of the product under test.
# [2] = system: mice; experiment: Study of the acute toxicity; type: in vivo; conditions: oral
# Procedure: The lethal doses LD50 of the different compounds tested were evaluated after administration orally to mice. The maximum dose not causing any mortality in 8 days was called the LD0 and the following results were obtained.
# [3] = system: Rat caudal arteries; experiment: Test of calcium-antagonistic activity in vitro (K+ depolarized caudal arteries); type: cell-based; conditions: 100 mM K+, 37° C., read-out: IC50, inhibition of the contraction due to K+ ions
# Procedure: Calcium chloride was added in a volume of 250 μl to obtain a series of increasing concentrations of Ca^2+ ions ranging from 0.1 to 3.0 mM. The contractions of the arteries were recorded and a control series were thus established. The operation was repeated with the series of CA^2+ ions every 15 minutes and the preparation was washed four times after each series. When a stable response was obtained, the operation with the series of CA^2+ ions was performed in the presence of different concentrations of the test product, until a stable response was obtained.
# The contractions of the arteries depend on the entry of Ca^2+ ions into the cells of the smooth muscles, and were caused by the depolarization of the smooth muscle by the K^+ ions and by the action of the noradrenaline released at presynaptic level. By starting the operation again with arteries denervated by the action of 6-OH-dopamine, the specific action due to noradrenaline was eliminated.
# [4] = iv, read-out: Percentage extension of the time of appearance of disturbances of the cardiac rhythm
# [5] = po, read-out: Percentage extension of the time of appearance of disturbances of the cardiac rhythm
# [6] = read-out: Percentage of prolongation in the time
# [7] = iv, read-out: Percentage of prolongation in the time
smiles,measurement,setting,value
"CC(C)(C)NCC(O)COc1ccccc1NC(=O)c1cccc2[nH]ccc12 (stereo not drawn) [Example 1, N-[2-[3-[(1,1-dimethylethyl)amino]-2-hydroxypropoxy]-phenyl]-1H-indol-4-carboxyamide]",change in vivo at 0.25 mg/kg,[1]; [4],31%
same,change in vivo at 0.5 mg/kg,[1]; [4],41%
same,change in vivo at 1 mg/kg,[1]; [4],110%
same,LD0 (maximum dose not causing any mortality in 8 days),[2],80 mg/kg
"CC(C)(C)NCCOc1ccccc1NC(=O)c1cccc2[nH]ccc12 [Example 2, N-[2-[2-[(1,1-dimethylethyl)amino]ethoxy]phenyl]-1H-indol-4-carboxamide]",change in vivo at 1 mg/kg,[1]; [4],6%
same,change in vivo at 2.5 mg/kg,[1]; [4],57%
same,LD0 (maximum dose not causing any mortality in 8 days),[2],80 mg/kg
"CC(C)(C)NCCCOc1ccccc1NC(=O)c1cccc2[nH]ccc12 [Example 3, N-[2-[3-[(1,1-dimethylethyl)amino]propoxy]phenyl]-1H-indol-4-carboxamide hydrochloride]",change in vivo at 2.5 mg/kg,[1]; [4],68%
"CC(C)(C)NCC(O)COc1ccccc1C(=O)Nc1cccc2[nH]ccc12 (stereo not drawn) [Example 4, 2-[3-[(1,1-dimethylethyl)amino]-2-hydroxypropoxy]-N-(1H-indol-4-yl)benzamide]",change in vivo at 0.5 mg/kg,[1]; [4],17%
same,change in vivo at 1 mg/kg,[1]; [4],38%
same,change in vivo at 2.5 mg/kg,[1]; [4],124%
same,change in vivo at 5 mg/kg,[1]; [5],7%
same,change in vivo at 10 mg/kg,[1]; [5],46%
same,change in vivo at 25 mg/kg,[1]; [5],81%
same,LD0 (maximum dose not causing any mortality in 8 days),[2],> 400 mg/kg
"CC(C)(C)NCCOc1ccccc1C(=O)Nc1cccc2[nH]ccc12.Cl [Example 5, 2-[2-[(1,1-dimethylethyl)amino]ethoxy]-N-(1H-indol-4-yl)-benzamide hydrochloride]",change in vivo at 0.25 mg/kg,[1]; [4],9%
same,change in vivo at 0.5 mg/kg,[1]; [4],36%
same,change in vivo at 1 mg/kg,[1]; [4],33%
same,change in vivo at 2.5 mg/kg,[1]; [4],61%
same,change in vivo at 2.5 mg/kg,[1]; [5],22%
same,change in vivo at 5 mg/kg,[1]; [5],32%
same,change in vivo at 10 mg/kg,[1]; [5],59%
same,LD0 (maximum dose not causing any mortality in 8 days),[2],60 mg/kg
"CC(C)(C)NCCCOc1ccccc1C(=O)Nc1cccc2[nH]ccc12 [Example 6, 2-[3-[(1,1-dimethylethyl)amino]propoxy]-N-(1H-indol-4-yl)benzamide]",change in vivo at 1 mg/kg,[1]; [4],23%
same,change in vivo at 2.5 mg/kg,[1]; [4],41%
same,change in vivo at 2.5 mg/kg,[1]; [5],29%
same,LD0 (maximum dose not causing any mortality in 8 days),[2],200 mg/kg
"CC(C)N(CCOc1ccccc1C(=O)Nc1cccc2[nH]ccc12)C(C)C [Example 12, 2-[2-[bis(1-methylethyl)-amino]ethoxy-]N-(1H-indol-4-yl) benzamide]",LD0 (maximum dose not causing any mortality in 8 days),[2],> 400 mg/kg
CC(C)N(CC(O)COc1ccccc1C(=O)Nc1cccc2[nH]ccc12)C(C)C (stereo not drawn) [Example 15],change in vivo at 2.5 mg/kg,[1]; [4],25.5%
same,change in vivo at 5 mg/kg,[1]; [4],56%
same,LD0 (maximum dose not causing any mortality in 8 days),[2],≥ 400 mg/kg
"CCC(C)(C)NCCCOc1ccccc1C(=O)Nc1cccc2[nH]ccc12 [Example 30, 2-[3-[(1,1-dimethylpropyl)amino]-propoxy]-N-(1H-indol-4-yl)benzamide]",change in vivo at 2.5 mg/kg,[1]; [4],38%
same,change in vivo at 5 mg/kg,[1]; [4],99%
same,change in vivo at 10 mg/kg,[1]; [4],147%
same,IC50,[3],8 µM
same,LD0 (maximum dose not causing any mortality in 8 days),[2],80 mg/kg
"O=C(Nc1cccc2[nH]ccc12)c1ccccc1OCCCNC1CCCCC1 [Example 31, 2-[3-(Cyclohexylamino)propoxy]-N-(1-H-indol-4-yl)benzamide]",change in vivo at 1 mg/kg,[1]; [4],24%
same,change in vivo at 2.5 mg/kg,[1]; [4],34%
same,change in vivo at 5 mg/kg,[1]; [4],83%
same,IC50,[3],1.8 µM
"O=C(Nc1cccc2[nH]ccc12)c1ccccc1OCCCNCC1CCCCC1 [Example 32, 2-[3-[Cyclohexylmethylamino]-propoxy)-N-(1H-indol-4-yl)benzamide]",change in vivo at 1 mg/kg,[1]; [4],43%
same,change in vivo at 2.5 mg/kg,[1]; [4],71%
same,change in vivo at 5 mg/kg,[1]; [4],97%
same,change in vivo at 6.5 mg/kg,[1]; [4],28%
same,IC50,[3],3.9 µM
same,LD0 (maximum dose not causing any mortality in 8 days),[2],100 mg/kg
"CC(C)(C)NCCCCOc1ccccc1C(=O)Nc1cccc2[nH]ccc12 [Example 33, 2[4-[1,1-Dimethylethylamino]butoxy]-N-(1H-indol-4-yl)benzamide]",change in vivo at 5 mg/kg,[1]; [6],54%
same,change in vivo at 10 mg/kg,[1]; [6],99%
same,IC50,[3],6.3 µM
same,LD0 (maximum dose not causing any mortality in 8 days),[2],> 400 mg/kg
"C#CC(C)(C)NCC(O)COc1ccccc1C(=O)Nc1cccc2[nH]ccc12 (stereo not drawn) [Example 35, 2-[3-[1,1-Dimethyl-2-propynylamino]-2-hydroxypropoxy]-N-(1H-indol-4-yl) benzamide]",IC50,[3],9 µM
"CC(C)(C)CC(C)(C)NCC(O)COc1ccccc1C(=O)Nc1cccc2[nH]ccc12 (stereo not drawn) [Example 36, 2-[2-Hydroxy-3-[1,1,3,3-tetramethylbutyl-amino]propoxy]-N-(1H-indol-4-yl)benzamide]",change in vivo at 1 mg/kg,[1]; [6],25%
same,change in vivo at 2.5 mg/kg,[1]; [6],69%
same,IC50,[3],0.44 µM
"CC(C)(CO)NCC(O)COc1ccccc1C(=O)Nc1cccc2[nH]ccc12 (stereo not drawn) [Example 37, 2-[3-[1,1-Dimethyl-2-hydroxyethylamino]-2-hydroxypropoxy]-N-(1H-indol-4-yl)benzamide]",change in vivo at 1 mg/kg,[1]; [6],47%
same,change in vivo at 5 mg/kg,[1]; [6],116%
"CCCNCCCOc1ccccc1C(=O)Nc1cccc2[nH]ccc12 [Example 38, N-(1H-Indol-4-yl)-2-[3-(propylamino)propoxy]-benzamide]",change in vivo at 2.5 mg/kg,[1]; [6],42%
same,change in vivo at 5 mg/kg,[1]; [6],76%
same,change in vivo at 10 mg/kg,[1]; [6],173%
"CC(C)(CO)NCCCOc1ccccc1C(=O)Nc1cccc2[nH]ccc12 [Example 40, 2-[3-[1,1-dimethyl-2-hydroxyethylamino]-propoxy]-N-(1H-indol-4-yl)benzamide]",change in vivo at 1 mg/kg,[1]; [6],21%
same,change in vivo at 2.5 mg/kg,[1]; [6],50%
same,IC50,[3],8.4 µM
"CC(C)NCCCOc1ccccc1NC(=O)c1cccc2[nH]ccc12 [Example 41, N-[2-[3-[Isopropylamino]propoxy]phenyl]-1H-indole-4-carboxamide]",change in vivo at 1 mg/kg,[1]; [6],34%
same,change in vivo at 2.5 mg/kg,[1]; [6],57%
same,change in vivo at 5 mg/kg,[1]; [6],156%
"O=C(Nc1ccccc1OCCCNC1CCCC1)c1cccc2[nH]ccc12 [Example 42, N-[2-[3-(Cyclopentylamino)propoxy]phenyl]-1H-indol-4-carboxamide]",change in vivo at 1 mg/kg,[1]; [6],29%
same,change in vivo at 2.5 mg/kg,[1]; [6],86%
"O=C(Nc1ccccc1OCCCNC1CCCCC1)c1cccc2[nH]ccc12 [Example 43, N-[2-[3-(Cyclohexylamino)propoxy]phenyl]-1H-indole-4-carboxamide]",change in vivo at 1 mg/kg,[1]; [6],49%
same,change in vivo at 2.5 mg/kg,[1]; [6],83%
"CCC(C)(C)NCCCOc1ccccc1NC(=O)c1cccc2[nH]ccc12 [Example 44, N-[2-[3-[1,1-Dimethylpropylamino]propoxy]phenyl]-1H-indole-4-carboxamide]",change in vivo at 1 mg/kg,[1]; [6],50%
same,change in vivo at 2.5 mg/kg,[1]; [6],90%
same,change in vivo at 5 mg/kg,[1]; [6],167%
same,LD0 (maximum dose not causing any mortality in 8 days),[2],200 mg/kg
"COc1ccc(CCNCCCOc2ccccc2NC(=O)c2cccc3[nH]ccc23)cc1OC [Example 45, N-[2-[3-[[2-(3,4-dimethoxyphenyl)ethyl]-amino]propoxy]phenyl]-1H-indole-4-carboxamide]",change in vivo at 2.5 mg/kg,[1]; [6],60%
same,change in vivo at 5 mg/kg,[1]; [6],142%
same,change in vivo at 10 mg/kg,[1]; [6],193%
"O=C(Nc1cccc2[nH]ccc12)c1ccccc1OCC(O)CN1CCN(C(c2ccccc2)c2ccccc2)CC1 (stereo not drawn) [Example 46, 2-[2-Hydroxy-3-[4-(diphenylmethyl)-1-piperazinyl]propoxy]-N-(1H-indol-4-yl)benzamide]",change in vivo at 2.5 mg/kg,[1]; [6],67%
same,change in vivo at 5 mg/kg,[1]; [6],127%
same,change in vivo at 10 mg/kg,[1]; [6],203%
same,IC50,[3],0.25 µM
same,LD0 (maximum dose not causing any mortality in 8 days),[2],400 mg/kg
"COc1cc(CCN2CCN(CCCCOc3ccccc3C(=O)Nc3cccc4[nH]ccc34)CC2)cc(OC)c1OC [Example 47, N-(1H-Indol-4-yl)-2-[4-[4-[2-(3,4,5-trimethoxyphenyl)ethyl]-1-piperazinyl]butoxy]benzamide]",change in vivo at 5 mg/kg,[1]; [6],44%
same,change in vivo at 10 mg/kg,[1]; [6],67%
same,IC50,[3],2.8 µM
Cn1ccc2c(NC(=O)c3ccccc3OCC(O)CN3CCN(C(c4ccccc4)c4ccccc4)CC3)cccc21 (stereo not drawn) [Example 49],IC50,[3],3 µM
CC(C)(C)NCC(O)COc1ccc([N+](=O)[O-])cc1C(=O)Nc1cccc2[nH]ccc12 (stereo not drawn) [Example 50],change in vivo at 0.5 mg/kg,[1]; [7],17%
same,change in vivo at 1 mg/kg,[1]; [7],39%
same,change in vivo at 2.5 mg/kg,[1]; [7],77%
same,LD0 (maximum dose not causing any mortality in 8 days),[2],200 mg/kg
"COc1ccc(C(=O)Nc2cccc3[nH]ccc23)c(OCC(O)CNC(C)(C)C)c1 (stereo not drawn) [Example 53, 2-[3-(1,1-dimethylethyl)-amine]-2-hydroxy-propoxy-N-(1H-indol-4-yl)-4-methoxy-benzamide]",change in vivo at 1 mg/kg,[1]; [7],10%
same,change in vivo at 2.5 mg/kg,[1]; [7],38%
same,IC50,[3],8 µM
"CC(C)(C)NCC(O)COc1ccc(Cl)cc1C(=O)Nc1cccc2[nH]ccc12 (stereo not drawn) [Example 54, 5-Chloro-2-[3-(1,1-dimethylethyl)-amino]-2-hydroxy-propoxy-N-(1H-indol-4-yl)-benzamide]",IC50,[3],5.4 µM
